# Results as given in patent US10189860B2, “Hydrates of dolutegravir sodium” (LEK PHARMACEUTICALS D.D., priority 2014, dated 2019).
# Several values for one entry are separate records, joined by “and”; a condition that tells them apart may be missing. Identical values can stand only once. Entries after “also recorded” stand apart in the source; their conditions may differ.
# Columns and labels:
# [1] = Gravimetric moisture sorption/desorption (GMSD) experiments; type: physicochemical; settings: 25±0.1° C.
# Description: Comparative gravimetric moisture sorption/desorption experiments at 25±0.1° C. were conducted with dolutegravir sodium monohydrate of WO 2010/068253 A1 and the hydrates of the present invention designated form HxA and form Hy1B.
# The water values at varying relative humidities were obtained by recording moisture sorption/desorption isotherms with a SPS-11 moisture sorption analyzer (MD Messtechnik, Ulm, D). The samples were weighed into Teflon sample holders. […] The equilibrium condition for each step was set to a mass constancy of ±0.005% over 60 min. The temperature was 25±0.1° C. The water content of the samples was determined after the moisture sorption/desorption experiments with a TGA 7 system (Perkin Elmer, Norwalk, Conn., USA) using the Pyris 2.0 software. The samples were weighed into Al pans (50 μL). Dry nitrogen was used as purge gas (purge rate: 20 mL/min). The samples were heated from 25 to 200° C. using a heating rate of 10° C./min.
# [2] = Particle morphology by scanning electron micrograph; type: physicochemical; settings: SEM
# Text: A figure of the morphology of Form I and form HxA is depicted in FIG. 13 (Form I) and 14 (form HxA), at different magnifications (500× magnification (Form I), 1.500× magnification (Form I and form HxA), and 5.000× magnification (form HxA)).
# [3] = Compressibility testing of API (bulk/tapped volume, compressibility index); type: physicochemical; settings: API batches; for Compressibility index: (Vb−Vt)/Vb; for Flow character according to PhEur: PhEur Chapter 2.9.36 Powder flow
# Description: As described in Example 8 herein above, the sodium salt of dolutegravir was prepared in two polymorphic forms (Form I and form HxA). […] Compressibilty index is an indirect measure of different powder properties such as size, shape, surface area, cohesiveness etc. (PhEur). Bulk (Vb) and tapped (Vt) volume were measured for several batches of both forms and the compressibilty index (%) is determined based on Vb and Vt. 250 mL volumetric cylinder with test samples weight approximately 25 g were used. The compressibility index was calculated according to formula ((Vb−Vt)/Vb).
# [4] = API particle size by laser diffraction
# [5] = listed as dolutegravir sodium monohydrate of WO 2010/068253 A1
# [6] = 95% RH, listed as dolutegravir sodium monohydrate of WO 2010/068253 A1
Structure (SMILES),Remarks: hysteresis between sorption and desorption isotherms [1],Remarks: stable at / preserves crystal structure (RH range) [1],Δm sorption [0-90% RH] [1],Δm sorption [30-90% RH] [1],morphology of particles [2],Bulk volume [3],Tapped volume [3],Compressibility index [3],Flow character according to PhEur [3],d0.1 [4],d0.5 [4],d0.9 [4],further results
"C[C@@H]1CCO[C@H]2Cn3cc(C(=O)NCc4ccc(F)cc4F)c(=O)c([O-])c3C(=O)N12.[Na+] [Form HxA, sodium (4R,12aS)-9-((2,4-difluorobenzyl)carbamoyl)-4-methyl-6,8-dioxo-3,4,6,8,12,12a-hexahydro-2H-pyrido[1′,2′:4,5]pyrazino[2,1-b][1,3]oxazin-7-olate]",no significant hysterises,stable at 0-95% RH,+3.4%,+2.5%,thin-plate like morphology,4.02 mL/g and 2.88 mL/g and 3.30 mL/g and 2.89 mL/g,2.86 mL/g and 2.14 mL/g and 2.60 mL/g and 2.25 mL/g,29% and 26% and 21% and 22%,Poor and Passable,1.3 μm,3.1 μm,7.4 μm,"Remarks: structural changes [1]: no structural changes observed; Remarks: hysteresis between sorption and desorption isotherms ([1]; listed as form HxA): absence of a hysteresis; hygroscopicity ([1]; listed as form HxA): significantly less hygroscopic than the monohydrate of WO 2010/068253 A1; maximum water content ([1]; 95% RH): about 3.8%; mol of water per mol of dolutegravir sodium ([1]; 95% RH): 0.9 mol of water per mol of dolutegravir sodium; maximum water content ([1]; 95% RH, listed as form HxA): 3.9%; mol of water per mol of dolutegravir sodium ([1]; about 30% RH): 0.2 mol of water per mol of dolutegravir sodium; water content ([1]; about 30% RH): about 0.9%; mol of water per mol of dolutegravir sodium ([1]; about 70% RH): 0.7 mol of water per mol of dolutegravir sodium; particle sizes (primary particles) [2]: about 5 μm; morphology of particles ([2]; listed as HxA form): thin-plate like morphology; Compressibility index ([3]; listed as HxA form): 22-29%; Flow character according to PhEur ([3]; listed as HxA form): “poor” to “passable”; Particle size ([4]; achieved with crystallization only): below 10 μm"
"C[C@@H]1CCO[C@H]2Cn3cc(C(=O)NCc4ccc(F)cc4F)c(=O)c([O-])c3C(=O)N12.[Na+] [Form Hy1B, sodium (4R,12aS)-9-((2,4-difluorobenzyl)carbamoyl)-4-methyl-6,8-dioxo-3,4,6,8,12,12a-hexahydro-2H-pyrido[1′,2′:4,5]pyrazino[2,1-b][1,3]oxazin-7-olate]",absence of a significant hysteresis; also recorded: no significant hysterises,–,+4.8%,+2.4%,–,–,–,–,–,–,–,–,hygroscopicity [1]: significantly less hygroscopic than the monohydrate of WO 2010/068253 A1; mol of water per mol of dolutegravir sodium ([1]; 90% RH): 1.3 mol of water per mol of dolutegravir sodium
"C[C@@H]1CCO[C@H]2Cn3cc(C(=O)NCc4ccc(F)cc4F)c(=O)c([O-])c3C(=O)N12.[Na+] [Form I, reference compound]",–,–,–,–,long needle like crystals,5.55 mL/g and 7.00 mL/g and 4.89 mL/g,3.79 mL/g and 4.56 mL/g and 3.23 mL/g,32% and 35% and 34%,Very poor,3.5 μm,10 μm,40 μm,needle lengths [2]: ≤ 70 μm
"C[C@@H]1CCO[C@H]2Cn3cc(C(=O)NCc4ccc(F)cc4F)c(=O)c([O-])c3C(=O)N12.[Na+] [MH of WO 2010/068253, reference compound]",–,"stable at 30-60% RH,",+14.0%,+10.7%,–,–,–,–,–,–,–,–,"Remarks: dehydration below [1]: dehydration below 30% RH,; Remarks: hysteresis at (RH range) [1]: hysterises at 40-95% RH; Remarks: dehydration below [1, 5]: Below 30 % RH; hygroscopicity [1, 5]: very hygroscopic; maximum water content [1, 6]: about 21.8%; mol of water per mol of dolutegravir sodium [1, 6]: 5.6 mol of water per mol of dolutegravir sodium"
